Source: patent US20180280480A1, “COMPOSITIONS AND PEPTIDES HAVING DUAL GLP-1R AND GLP-2R AGONIST ACTIVITY” (priority 2014, published 2018)
Marks after values point to notes of the source that are not given here.

Tests used:
Type in all cases: in vivo
[1] = test system: C57BL/6J mice; experiment: Acute food intake in C57BL/6J mice; details: for Total food intake (g/animal): Day 0: 0-[…] (lights off), mean ± SEM
Experimental: The C57BL/6J mice arrived 7 days prior to the initiation of the study. During these days, animals were handled daily to accustom them to the experimental paradigm. At Day −1, the mice were randomised according to body weight to participate in one of following drug treatment groups (n=6-8 in each group): Group 1: vehicle. […] Group 3-5: SEQ ID NO 3; 3.0; 1.0; 0.3 mg/kg. Group 6-8: SEQ ID NO 4; 3.0; 1.0; 0.3 mg/kg. Group 9-11: SEQ ID NO 5; 3.0; 1.0; 0.3 mg/kg. Group 12-14: SEQ ID NO 6; 3.0; 1.0; 0.3 mg/kg. Group 15-17: SEQ ID NO 7; 3.0; 1.0; 0.3 mg/kg. Three days prior to initiation of dosing, all animals were handled daily and accustomed to the experimental conditions by subcutaneous mock injections (i.e. nipping the skin of the back). Baseline food intake was monitored four days prior to the study. Mice were randomized according to body weight on Day −1. Animals were subjected to two separate injections. First acute dose was administered prior to lights out at Day 0 and food intake was monitored 24 hours post dosing. On Day 3, mice were re-randomised into new treatment groups and dosed prior to lights out. Food intake was monitored 24 hours post dosing. Body weight was measured daily from Day −5 and throughout the study. The study was terminated on Day 5. […] Dosing took place prior to lights out in the afternoon (between 13.30 and 14.00). Doses were administered subcutaneously (dose volume 5 ml/kg). Food intake data was collected using the HM-2 system, an online computerized feeding system using digital weighing cells. Food intake and body weight were measured from Day −7 and throughout the study. […]

[2] = test system: C57BL/6J mice; experiment: GLP1R-GLP2R dual agonist compound study: gut wet weight
Description: On study day 8, the mice were terminated and the GI tract was removed for determination of the gut wet weight. The gut wet weight results are listed below in Table 12.

[3] = test system: diabetic db/db (BKS.Cg-m+/+Leprdb/J) male mice; experiment: Fed blood glucose and HbA1c in diabetic db/db mice; details: for Blood glucose, fed state / HbA1c: Day 56, mean ± S.E.M.
Experimental: (§1) A total of forty-six (46) diabetic db/db (BKS.Cg-m+/+Leprdb/J) male mice, 5 weeks old at arrival, was obtained from Janvier (France). The mice were acclimatized for two weeks in their new environment with free access to normal chow (Altromin 1324, Brogaarden A/S, Gentofte, Denmark) and domestic quality tap water. They were housed in groups of n=2 in a light-, temperature-, and humidity-controlled room (12-hour light: 12-hour dark cycle, lights On/Off at 04.00/16.00 h; 22±1° C.; 50±10% relative humidity). During the habituation period animals was accustomed to the experimental paradigm.
(§2) Baseline, free fed blood glucose samples were obtained bi-weekly prior to study start (blood was collected from the tail vein) in order to screen for the diabetic state. The 40 animals closest to the mean BG/BW value at day −3 were randomized into 4 groups (n=10/group; the remaining 6 animals was be discarded from the main study): Group 1: Vehicle, BID, SC. Group 2: SEQ ID NO 6, 50 nmol/kg, BID, SC. Group 3: SEQ ID NO 6, 250 nmol/kg, BID, SC. […] During day 0-58 of the experiment, animals received a subcutaneous dosing twice daily at 06.00-08.00 hours and again between 02.00-04.00 hours. Dose volume was 5 ml/kg.
(§3) On experimental day 56 an oral glucose tolerance test was performed. Animals were mildly fasted as food was removed 4 hours prior to administration of the glucose bolus. Compounds were administered 45 minutes prior to the OGTT. At t=0, mice received an oral glucose load of 2 g/kg glucose (Glucose 200 mg/ml, Fresenius Kabi, Sweden). Glucose was given as gavage via a gastrically placed tube connected to a syringe ensuring accurate dosing. Blood samples were collected from the tail vein and blood-glucose was measured at time points −60, 0, 15, 30, 60, 120 and 240 minutes after the glucose administration. Samples for measuring HbA1c was taken in parallel with blood glucose at t=−60 minutes. Mice were re-fed after the last blood sampling.

[4] = test system: diabetic db/db (BKS.Cg-m+/+Leprdb/J) male mice; experiment: Oral glucose tolerance test in diabetic db/db mice; details: for Blood glucose during an oral glucose tolerance test. Area under the curve (AUC) −240 to 240 min.: Day 56, mean ± S.E.M.
Experimental: as §1, §2, §3

[5] = test system: diabetic db/db (BKS.Cg-m+/+Leprdb/J) male mice; experiment: Intestinal volume and surface area (stereology) in diabetic db/db mice; details: for Large intestine surface area / Large intestine volume / Small intestine surface area / Small intestine volume: Day 58, mean ± S.E.M.
Experimental: as §1, with “The mice were acclimatized for two weeks in their new environment with free access to normal chow (Altromin 1324, Brogaarden A/S, Gentofte, Denmark) and domestic quality tap water.” left out
as §2, with “SC.” for “SC. Group 2: SEQ ID NO 6, 50 nmol/kg, BID, SC. Group 3: SEQ ID NO 6, 250 nmol/kg, BID, SC.”
At the end of the study period mice were terminated by decapitation under isoflurane anaesthesia. The entire intestine was dissected out and divided into small and large which was then measured in length.

R^1-HGDGSFTSELSTYLDALAARDFIAWLIQTKITDR^2 [SEQ ID NO 6]
Total food intake (g/animal) ([1]; single SC dose 0.3 mg/kg): 0.33 ± 0.17 g/animal | Total food intake (g/animal) ([1]; single SC dose 1 mg/kg): 0.13 ± 0.08 g/animal | Total food intake (g/animal) ([1]; single SC dose 3 mg/kg): 0.06 ± 0.03 g/animal | ranking as inhibitor of food intake after […] ([1]; among SEQ ID NO 3-7, Table 4): most effective inhibitor of food intake | food intake after […] compared to vehicle ([1]; single dose 0.3-3 mg/kg): significantly reduced food intake | Gut wet weight ([2]; Day 8, 3.0 mg/kg BID SC, mean ± S.E.M.): 3.8 ± 0.3 g | gut wet weight compared to vehicle and teduglutide ([2]; dosed twice daily for 8 days): significantly increased the gut wet weight | effect on fed-state blood glucose, HbA1c and glucose tolerance ([3]; 8 weeks of treatment, db/db mice): reduction in fed-state blood glucose, HbA1c levels as well as an improving of glucose tolerance in a dose dependent manner | Blood glucose, fed state ([3]; 50 nmol/kg BID SC): 7.2 ± 1.0 mmol/L | HbA1c ([3]; 50 nmol/kg BID SC): 5.0 ± 0.2 % | Blood glucose, fed state ([3]; 250 nmol/kg BID SC): 5.9 ± 0.4 mmol/L | HbA1c ([3]; 250 nmol/kg BID SC): 4.4 ± 0.1 % | glucose tolerance compared to liraglutide ([4]; 250 nmol/kg, P=0.03, Student's t-test): even further improved glucose tolerance compared to animals treated with liraglutide | Blood glucose during an oral glucose tolerance test. Area under the curve (AUC) −240 to 240 min. ([4]; 50 nmol/kg BID SC): 3543 ± 469 mmol·min/L | Blood glucose during an oral glucose tolerance test. Area under the curve (AUC) −240 to 240 min. ([4]; 250 nmol/kg BID SC): 2472 ± 119 mmol·min/L | effect on small intestine volume and surface area ([5]; 8 weeks of treatment, 50 and 250 nmol/kg): marked increase in small intestine volume as well as surface area | Large intestine surface area ([5]; 50 nmol/kg BID SC): 3.6 ± 1.2 cm^2 | Large intestine volume ([5]; 50 nmol/kg BID SC): 274.2 ± 7.0 mm^3 | Small intestine surface area ([5]; 50 nmol/kg BID SC): 348.9 ± 10.8*** cm^2 | Small intestine volume ([5]; 50 nmol/kg BID SC): 2097 ± 72.7*** mm^3 | Large intestine surface area ([5]; 250 nmol/kg BID SC): 18.6 ± 1.9 cm^2 | Large intestine volume ([5]; 250 nmol/kg BID SC): 288.2 ± 23.7 mm^3 | Small intestine surface area ([5]; 250 nmol/kg BID SC): 344.0 ± 20.8*** cm^2 | Small intestine volume ([5]; 250 nmol/kg BID SC): 2043 ± 62.3*** mm^3
